According to patent publication US7622480B2, “Azaindolylpiperidine derivatives as antihistaminic and antiallergic agents” (Laboratorios Almirall S.A., priority 2002, dated 2009):

The molecules below were run against T1, histamine H1 receptor (Cavia porcellus, UniProt P31389) (assay: Histamine-H1 receptor binding assay). Details: guinea pig cerebellum membranes, 0.7 nM [3H]-mepyramine, 30 min at 30° C.
T1 construct: performed in guinea pig cerebellum membranes as described previously; from tissue; host or cells: guinea pig cerebellum membranes
T1 sequence (P31389 whole entry): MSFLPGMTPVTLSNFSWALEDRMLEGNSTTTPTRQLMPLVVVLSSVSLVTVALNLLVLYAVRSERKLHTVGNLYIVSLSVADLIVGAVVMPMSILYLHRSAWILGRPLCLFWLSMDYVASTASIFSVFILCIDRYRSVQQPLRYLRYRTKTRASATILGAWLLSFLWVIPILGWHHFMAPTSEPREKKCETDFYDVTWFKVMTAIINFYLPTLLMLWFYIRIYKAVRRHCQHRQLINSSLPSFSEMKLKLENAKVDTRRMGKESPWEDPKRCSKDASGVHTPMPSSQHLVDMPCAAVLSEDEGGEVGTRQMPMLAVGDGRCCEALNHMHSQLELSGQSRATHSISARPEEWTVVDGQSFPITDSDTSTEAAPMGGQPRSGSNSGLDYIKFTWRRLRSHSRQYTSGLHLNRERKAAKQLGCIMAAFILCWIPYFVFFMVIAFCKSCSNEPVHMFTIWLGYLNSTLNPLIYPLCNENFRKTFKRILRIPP
Experimental: (1) In vitro histamine H1 receptor binding assay, to measure the affinity of the compounds. […] Briefly, the membrane suspensions (160 μg/ml) were incubated at 30° C. with 0.7 nM [^3H]-mepyramine and different concentrations of the test compounds in a final volume of 250 μl. Binding reactions were terminated by filtration after 30 min of incubation and the bound radioactivity was determined. The non-specific binding was measured in the presence of 10 μM of promethazine. The affinity of each test compound to the receptor was determined by using at least six different concentrations run in duplicate. IC50 values were obtained by non-linear regression by use of SAS on a DEC AXP computer.
`COc1ccc(CN2CCC(c3cn(Cc4ccco4)c4cnccc34)CC2)cc1C(=O)O` [Example 96, 5-[4-(1-furan-2-ylmethyl-1H-pyrrolo[2,3-c]pyridin-3-yl)-piperidin-1-ylmethyl]-2-methoxybenzoic acid] gave an IC50 of 805 nM. Work on `COCCn1cc(C2CCN(CCOc3cccc(OC)c3C(=O)O)CC2)c2cccnc21` [Example 23, 2-methoxy-6-(2-{4-[1-(2-methoxyethyl)-1H-pyrrolo[2,3-b]pyridin-3-yl]-piperidin-1-yl}-ethoxy)benzoic acid] yielded an IC50 of 275 nM. `O=C(O)c1cc(CN2CCC(c3cn(Cc4ccoc4)c4ncccc34)CC2)ccc1F` [Example 45, 2-fluoro-5-[4-(1-furan-3-ylmethyl-1H-pyrrolo[2,3-b]pyridin-3-yl)-piperidin-1-ylmethyl]-benzoic acid] showed an IC50 of 255 nM. For `COc1ccc(CN2CCC(c3cn(Cc4ccco4)c4ncccc34)CC2)cc1C(=O)O` [Example 10, 5-[4-(1-furan-2-ylmethyl-1H-pyrrolo[2,3-b]pyridin-3-yl)piperidin-1-ylmethyl]-2methoxy-benzoic acid], the IC50 was 335 nM. With `COc1ccc(C(=O)O)c(OCCN2CCC(c3cn(Cc4ccco4)c4ncccc34)CC2)c1` [Example 50, 2-{2-[4-(1-furan-2-ylmethyl-1H-pyrrolo[2,3-b]pyridin-3-yl)-piperidin-1-yl]-ethoxy}-4-methoxybenzoic acid] the IC50 was 48 nM. `O=C(O)c1ccccc1OCCN1CCC(c2cn(Cc3ccsc3)c3ncccc23)CC1` [Example 14, 2-{2-[4-(1-thiophen-3-ylmethyl-1H-pyrrolo[2,3-b]pyridin-3-yl)-piperidin-1-yl]-ethoxy}-benzoic acid] showed an IC50 of 510 nM. In the case of `O=C(O)c1cccc(CN2CCC(c3cn(Cc4ccc(Cl)s4)c4ncccc34)CC2)c1` [Example 18, 3-{4-[1-(5-chlorothiophen-2-ylmethyl)-1H-pyrrolo[2,3-b]pyridin-3-yl]-piperidin-1-ylmethyl}-benzoic acid], the IC50 is reported as 315 nM. In the case of `CCCCn1cc(C2CCN(CCOc3ccccc3C(=O)O)CC2)c2ccncc21` [Example 81, 2-{2-[4-(1-butyl-1H-pyrrolo[2,3-c]pyridin-3-yl)-piperidin-1-yl]-ethoxy}-benzoic acid], the IC50 is reported as 220 nM. Molecule `COCCn1cc(C2CCN(Cc3cccc(C(=O)O)c3)CC2)c2cccnc21` [Example 1, 3-{4-[1-(2-methoxyethyl)-1H-pyrrolo[2,3-b]pyridin-3-yl]piperidin-1-ylmethyl}benzoic acid] has an IC50 of 240 nM. With `CCCCn1cc(C2CCN(Cc3cccc(C(=O)O)c3)CC2)c2cccnc21` [Example 26, 3-[4-(1-butyl-1H-pyrrolo[2,3-b]pyridin-3-yl)piperidin-1-ylmethyl]-benzoic acid] the IC50 was 275 nM. Work on `COc1ccc(CN2CCC(c3cn(Cc4ccc(Cl)s4)c4ncccc34)CC2)cc1C(=O)O` [Example 19, 5-{4-[1-(5-chlorothiophen-2-ylmethyl)-1H-pyrrolo[2,3-b]pyridin-3-yl]-piperidin-1-ylmethyl}2-methoxybenzoic acid] yielded an IC50 of 500 nM. `COCCn1cc(C2CCN(Cc3c(OC)ccc(C(=O)O)c3OC)CC2)c2cccnc21` [Example 22, 2,4-dimethoxy-3-{4-[1-(2-methoxyethyl)-1H-pyrrolo[2,3-b]pyridin-3-yl]-piperidin-1-ylmethyl}-benzoic acid] gave an IC50 of 235 nM. In the case of `CCCCn1cc(C2CCN(Cc3ccc(F)c(C(=O)O)c3)CC2)c2cccnc21` [Example 64, 5-[4-(1-butyl-1H-pyrrolo[2,3-b]pyridin-3-yl)-piperidin-1-ylmethyl]-2-fluorobenzoic acid], the IC50 is reported as 380 nM. In the case of `CCCCn1cc(C2CCN(CCOc3ccccc3C(=O)O)CC2)c2cccnc21` [Example 25, 2-{2-[4-(1-butyl-1H-pyrrolo[2,3-b]pyridin-3-yl)piperidin-1-yl]-ethoxy}-benzoic acid], the IC50 is reported as 235 nM. `CCCCn1cc(C2CCN(CCOc3cc(Cl)ccc3C(=O)O)CC2)c2cccnc21` [Example 63, 2-{2-[4-(1-butyl-1H-pyrrolo[2,3-b]pyridin-3-yl)-piperidin-1-yl]-ethoxy}-4-chlorobenzoic acid] showed an IC50 of 110 nM. `COc1ccc(CN2CCC(c3cn(Cc4ccoc4)c4ncccc34)CC2)cc1C(=O)O` [Example 7, 5-[4-(1-furan-3-ylmethyl-1H-pyrrolo[2,3-b]pyridin-3-yl)-piperidin-1-ylmethyl]-2-methoxybenzoic acid] gave an IC50 of 205 nM. `O=C(O)c1ccc(Cl)cc1OCCN1CCC(c2cn(Cc3ccc(Cl)s3)c3cnccc23)CC1` [Example 92, 4-chloro-2-(2-{4-[1-(5-chlorothiophen-2-ylmethyl)-1H-pyrrolo[2,3-c]pyridin-3-yl]-piperidin-1-yl}-ethoxy)-benzoic acid] showed an IC50 of 105 nM. `COc1ccc(C(=O)O)c(OCCN2CCC(c3cn(Cc4ccoc4)c4ncccc34)CC2)c1` [Example 43, 2-{2-[4-(1-furan-3-ylmethyl-1H-pyrrolo[2,3-b]pyridin-3-yl)piperidin-1-yl]-ethoxy}-4-methoxybenzoic acid] showed an IC50 of 120 nM. For `COc1ccc(C(=O)O)c(OCCN2CCC(c3cn(Cc4ccoc4)c4cnccc34)CC2)c1` [Example 76, 2-{2-[4-(1-furan-3-ylmethyl-1H-pyrrolo[2,3-c]pyridin-3-yl)-piperidin-1-yl]-ethoxy}-4-methoxybenzoic acid], the IC50 was 675 nM. Molecule `O=C(O)c1ccccc1OCCN1CCC(c2cn(Cc3cccs3)c3ncccc23)CC1` [Example 11, 2-{2-[4-(1-thiophen-2-ylmethyl-1H-pyrrolo[2,3-b]pyridin-3-yl)-piperidin-1-yl]-ethoxy}benzoic acid] has an IC50 of 505 nM. `CCCCn1cc(C2CCN(CCOc3cc(Cl)ccc3C(=O)O)CC2)c2ccncc21` [Example 84, 2-{2-[4-(1-butyl-1H-pyrrolo[2,3-c]pyridin-3-yl)piperidin-1-yl]-ethoxy}-4-chlorobenzoic acid] gave an IC50 of 74 nM. In the case of `O=C(O)c1cccc(CN2CCC(c3cn(CC4CC4)c4ncccc34)CC2)c1` [Example 28, 3-[4-(1-cyclopropylmethyl-1H-pyrrolo[2,3-b]pyridin-3-yl)-piperidin-1-ylmethyl]-benzoic acid], the IC50 is reported as 520 nM. In the case of `O=C(O)c1ccccc1OCCN1CCC(c2cn(Cc3ccc(Cl)s3)c3ncccc23)CC1` [Example 17, 2-(2-{4-[1-(5-chlorothiophen-2-ylmethyl)-1H-pyrrolo[2,3-b]pyridin-3-yl]-piperidin-1-yl}-ethoxy)-benzoic acid], the IC50 is reported as 265 nM. `CCOCCn1cc(C2CCN(CCOc3cc(Cl)ccc3C(=O)O)CC2)c2ccncc21` [Example 73, 4-chloro-2-(2-{4-[1-(2-ethoxyethyl)-1H-pyrrolo[2,3-c]pyridin-3-yl]-piperidin-1-yl}-ethoxy)-benzoic acid] was tested, and the IC50 was 111 nM. In the case of `COc1cccc(C(=O)O)c1OCCN1CCC(c2cn(Cc3ccc(Cl)s3)c3ncccc23)CC1` [Example 54, 2-(2-{4-[1-(5-chlorothiophen-2-ylmethyl)-1H-pyrrolo[2,3-b]pyridin-3-yl]-piperidin-1-yl}-ethoxy)-3-methoxybenzoic acid], the IC50 is reported as 695 nM. `CCOCCn1cc(C2CCN(CCOc3c(OC)cccc3C(=O)O)CC2)c2cccnc21` [Example 37, 2-(2-{4-[1-(2-ethoxyethyl)-1H-pyrrolo[2,3-b]pyridin-3-yl]-piperidin-1-yl}-ethoxy)-3-methoxybenzoic acid] gave an IC50 of 155 nM.

Each molecule was assayed on Histamine-induced skin vascular permeability in rats (assay: Histamine-induced skin vascular permeability in rats). Details: Rattus norvegicus, 4 h; Male Wistar rats, oral, dose of 3 mg/Kg, four hours after administration, compared with vehicle treated group.
Format: in vivo
Experimental: Either one, four, eight or 24 hours later the rats were lightly anaesthetized with ether and a cutaneous reaction was induced by two intradermal injections of 50 μl of histamine (100 μg/ml) onto the back, followed by a intravenous injection of 3 ml/kg of Evan's Blue (5 mg/ml), both dissolved in saline. Sixty minutes later, the rats were killed by cervical dislocation and the back skin dissected free. The diameter (in millimetres) of the papule was measured in two directions and the area was calculated.
In the case of `COc1ccc(CN2CCC(c3cn(Cc4ccco4)c4ncccc34)CC2)cc1C(=O)O` [Example 10, 5-[4-(1-furan-2-ylmethyl-1H-pyrrolo[2,3-b]pyridin-3-yl)piperidin-1-ylmethyl]-2methoxy-benzoic acid], the inhibition in vivo at 3 mg/kg is reported as over 50%. Work on `COCCn1cc(C2CCN(Cc3cccc(C(=O)O)c3)CC2)c2cccnc21` [Example 1, 3-{4-[1-(2-methoxyethyl)-1H-pyrrolo[2,3-b]pyridin-3-yl]piperidin-1-ylmethyl}benzoic acid] yielded an inhibition in vivo at 3 mg/kg of over 50%. In the case of `COc1ccc(CN2CCC(c3cn(Cc4ccc(Cl)s4)c4ncccc34)CC2)cc1C(=O)O` [Example 19, 5-{4-[1-(5-chlorothiophen-2-ylmethyl)-1H-pyrrolo[2,3-b]pyridin-3-yl]-piperidin-1-ylmethyl}2-methoxybenzoic acid], the inhibition in vivo at 3 mg/kg is reported as over 50%. For `CCCCn1cc(C2CCN(CCOc3ccccc3C(=O)O)CC2)c2cccnc21` [Example 25, 2-{2-[4-(1-butyl-1H-pyrrolo[2,3-b]pyridin-3-yl)piperidin-1-yl]-ethoxy}-benzoic acid], the inhibition in vivo at 3 mg/kg was over 50%. With `COc1ccc(CN2CCC(c3cn(Cc4ccoc4)c4ncccc34)CC2)cc1C(=O)O` [Example 7, 5-[4-(1-furan-3-ylmethyl-1H-pyrrolo[2,3-b]pyridin-3-yl)-piperidin-1-ylmethyl]-2-methoxybenzoic acid] the inhibition in vivo at 3 mg/kg was over 50%.
